Experimental data from US6168798A, “Non-irritating composition for treating acne and other skin conditions” (Bristol-Myers Squibb Company, priority 1997, dated 2001).

Test system: isolated bovine corneas
Description: The bovine corneal opacity and permeability assay (BCOP) was used to assess the ocular irritancy of test formulations to isolated bovine corneas. Bovine corneas, obtained as a by-product from freshly slaughtered animals, were mounted in special holders and exposed to the test formulations. An in vitro score was determined for each test material based on the induction of opacity and permeability to fluorescein in the isolated bovine corneas. In these experiments, the potential ocular irritancy of the composition formulated in accordance with the invention and exemplified in Table 1 was compared with that of the commercially-available comparative product. Ocular irritancy was measured by changes in opacity and permeability to fluorescein in isolated bovine corneas. Five corneas were treated with each test material. Based on changes in corneal opacity and permeability relative to control corneas, an in vitro score was determined. […]
After a minimum of one hour of incubation, the corneal holders with the corneas in place were removed from the incubator and the medium was removed from both compartments and replaced with fresh medium. The opacity was determined for each cornea using a Spectro Design OP-KIT opacitometer. Three corneas whose opacity readings were close to the median opacity for all of the corneas were selected as the negative control corneas. […]

CCO [ethanol (95%), ethanol]
Irritation potential rating from in vitro score: moderate to severe
